Results published in patent US20240109900A1, “AZABICYCLIC SHP2 INHIBITORS” (IRBM S.P.A., priority 2021, published 2024).
Like-named read-outs stand apart in the source and are kept apart here.

What was measured:
[1] = target: SHP-2 enzyme (Met1-Leu525) (Homo sapiens (Human), UniProt Q06124); assay: SHP2 inhibition enzymatic assay; assay type: biochemical; details: 0.5 nM SHP-2 activated by 500 nM IRS1 peptide, 75 μM DiFMUP substrate; read-out: SHP2wt-IC50
Outline: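 SHP-2 (Met1-Leu525), 0.5 nM, activated with 500 nM IRS1 bis-phosphopeptide, preincubated 30 min with compounds in HEPES pH 7.2 buffer with 5 mM DTT. 75 μM DiFMUP added for 30 min at room temperature, stopped with bpV; fluorescence read. IC50 from four-parameter logistic fit of % inhibition.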

[2] = tested on: ERK phosphorylation in KYSE-520 cells; assay: Phospho-ERK cellular assay; assay type: cell-based; details: KYSE-520 cells, 2 h at 37° C., phospho-ERK1/2 (Thr202/Tyr204) TR-FRET, read-out: PERK IC50
Outline: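 TR-FRET read-out of ERK1/2 Thr202/Tyr204 phosphorylation was taken after overnight antibody incubation at room temperature. Before that, KYSE-520 cells were treated 2 h at 37 °C with compound dilutions and lysed 30 min. Percent inhibition relative to vehicle and cell-free wells was fitted four-parametrically to give IC50.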

Chain of SHP-2 enzyme (Met1-Leu525) (Q06124 1-525): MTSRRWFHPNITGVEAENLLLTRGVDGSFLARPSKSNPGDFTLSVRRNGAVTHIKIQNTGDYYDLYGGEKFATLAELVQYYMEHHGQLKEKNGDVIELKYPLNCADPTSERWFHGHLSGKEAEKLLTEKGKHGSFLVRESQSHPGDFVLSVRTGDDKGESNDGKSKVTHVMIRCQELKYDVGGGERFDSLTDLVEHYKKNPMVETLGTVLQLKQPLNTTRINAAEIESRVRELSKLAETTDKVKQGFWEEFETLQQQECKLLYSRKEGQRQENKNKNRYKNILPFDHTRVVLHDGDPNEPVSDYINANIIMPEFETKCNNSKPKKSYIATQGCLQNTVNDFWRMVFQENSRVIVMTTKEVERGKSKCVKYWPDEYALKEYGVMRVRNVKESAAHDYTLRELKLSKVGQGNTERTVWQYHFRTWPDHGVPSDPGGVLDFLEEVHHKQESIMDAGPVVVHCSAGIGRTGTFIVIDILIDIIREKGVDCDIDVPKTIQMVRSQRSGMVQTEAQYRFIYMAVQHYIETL

| Structure (SMILES) | IC50 [1] | IC50 ([2]; Homo sapiens, KYSE-520, 2 h) | IC50 [2] |
| --- | --- | --- | --- |
| Cc1nc2cc(-c3n[nH]c4nc(N5CC[C@@H]6[C@H](C5)[C@@]6(CN)c5ccccc5F)cnc34)ccc2[nH]1 [Example 337, ((1S,6R,7R)-7-(2-fluorophenyl)-3-(3-(2-methyl-1H-benzo[d]imidazol-5-yl)-1H-pyrazolo[3,4-b]pyrazin-6-yl)-3-azabicyclo[4.1.0]heptan-7-yl)methanamine] | < 0.5 µM | < 1 µM | – |
| Cn1cc2c(Cl)c(Sc3cnc(N4CC[C@@H]5[C@H](C4)[C@@]5(CN)c4ccccc4F)cn3)ccc2n1 [Example 427, ((1S,6R,7R)-3-(5-((4-chloro-2-methyl-2H-indazol-5-yl)thio)pyrazin-2-yl)-7-(2-fluorophenyl)-3-azabicyclo[4.1.0]heptan-7-yl)methanamine] | < 0.5 µM | < 1 µM | – |
| Cc1csc(C2(CN)C3CCN(c4cnc5c(-c6cccc7ccccc67)n[nH]c5n4)CC32)n1 (stereo not shown) [Example 89, (7-(4-methylthiazol-2-yl)-3-(3-(naphthalen-1-yl)-1H-pyrazolo[3,4-b]pyrazin-6-yl)-3-azabicyclo[4.1.0]heptan-7-yl)methanamine] | < 0.5 µM | < 1 µM | – |
| COc1cccc2c(-c3n[nH]c4nc(N5CC[C@@H]6[C@H](C5)[C@@]6(CN)c5ccccc5F)cnc34)ccnc12 [Example 166, ((1S,6R,7R)-7-(2-fluorophenyl)-3-(3-(8-methoxyquinolin-4-yl)-1H-pyrazolo[3,4-b]pyrazin-6-yl)-3-azabicyclo[4.1.0]heptan-7-yl)methanamine] | < 0.5 µM | < 1 µM | – |
| NC[C@]1(c2cccc(F)c2F)[C@@H]2CCN(c3cnc4c(-c5ccnc(N)c5Cl)n[nH]c4n3)C[C@@H]21 [Example 178, 4-(6-((1S,6R,7R)-7-(aminomethyl)-7-(2,3-difluorophenyl)-3-azabicyclo[4.1.0]heptan-3-yl)-1H-pyrazolo[3,4-b]pyrazin-3-yl)-3-chloropyridin-2-amine] | < 0.5 µM | < 1 µM | – |
| NC[C@]1(c2ccccc2F)[C@@H]2CCN(c3cnc4nc(Sc5ccnc(-n6cccn6)c5Cl)ccc4n3)C[C@@H]21 [Example 398, ((1S,6R,7R)-3-(6-((3-chloro-2-(1H-pyrazol-1-yl)pyridin-4-yl)thio)pyrido[2,3-b]pyrazin-2-yl)-7-(2-fluorophenyl)-3-azabicyclo[4.1.0]heptan-7-yl)methanamine] | < 0.5 µM | < 1 µM | – |
| Cc1nc2c(Cl)c(-c3n[nH]c4nc(N5CC[C@@H]6[C@H](C5)[C@@]6(CN)c5ccccc5F)cnc34)ccc2n1C [Example 349, ((1S,6R,7R)-3-(3-(4-chloro-1,2-dimethyl-1H-benzo[d]imidazol-5-yl)-1H-pyrazolo[3,4-b]pyrazin-6-yl)-7-(2-fluorophenyl)-3-azabicyclo[4.1.0]heptan-7-yl)methanamine] | < 0.5 µM | < 1 µM | – |
| Cc1csc(C2(CN)[C@@H]3CN(c4cnc5c(-c6ccc7nn(CC#N)cc7c6Cl)n[nH]c5n4)C[C@@H]32)n1 (stereo partly shown) [Example 478] | < 0.5 µM | – | < 1 µM |
| N#Cc1ccc(-c2n[nH]c3nc(N4CC[C@@H]5[C@H](C4)[C@@]5(CN)c4ccccc4F)cnc23)c(Cl)c1 [Example 245, 4-(6-((1S,6R,7R)-7-(aminomethyl)-7-(2-fluorophenyl)-3-azabicyclo[4.1.0]heptan-3-yl)-1H-pyrazolo[3,4-b]pyrazin-3-yl)-3-chlorobenzonitrile] | < 0.5 µM | < 1 µM | – |
| NC[C@]1(c2ccccc2F)[C@@H]2CCN(c3cnc4c(-c5ccc6nn(C(F)F)cc6c5Cl)n[nH]c4n3)C[C@@H]21 [Example 335, ((1S,6R,7R)-3-(3-(4-chloro-2-(difluoromethyl)-2H-indazol-5-yl)-1H-pyrazolo[3,4-b]pyrazin-6-yl)-7-(2-fluorophenyl)-3-azabicyclo[4.1.0]heptan-7-yl)methanamine] | < 0.5 µM | < 1 µM | – |
| Cc1conc1C1(CN)C2CCN(c3cnc4c(-c5ccc6nn(C)cc6c5Cl)n[nH]c4n3)CC21 (stereo not shown) [Example 15, (3-(3-(4-chloro-2-methyl-2H-indazol-5-yl)-1H-pyrazolo[3,4-b]pyrazin-6-yl)-7-(4-methylisoxazol-3-yl)-3-azabicyclo[4.1.0]heptan-7-yl)methanamine] | < 0.5 µM | < 1 µM | – |
| NC[C@]1(c2ccccc2F)[C@@H]2CCN(c3cnc4c(-c5cc(F)c(O)cc5F)n[nH]c4n3)C[C@@H]21 [Example 354, 4-(6-((1S,6R,7R)-7-(aminomethyl)-7-(2-fluorophenyl)-3-azabicyclo[4.1.0]heptan-3-yl)-1H-pyrazolo[3,4-b]pyrazin-3-yl)-2,5-difluorophenol] | < 0.5 µM | < 1 µM | – |
| COc1cc(-c2n[nH]c3nc(N4CC[C@@H]5[C@H](C4)[C@@]5(CN)c4ccccc4F)cnc23)cc2[nH]c(=O)[nH]c12 [Example 292, 6-(6-((1S,6R,7R)-7-(aminomethyl)-7-(2-fluorophenyl)-3-azabicyclo[4.1.0]heptan-3-yl)-1H-pyrazolo[3,4-b]pyrazin-3-yl)-4-methoxy-1,3-dihydro-2H-benzo[d]imidazol-2-one] | < 0.5 µM | > 5 µM | – |
| Cc1nc2ccc(-c3n[nH]c4nc(N5C[C@@H]6[C@H](C5)[C@@]6(CN)c5ccccn5)cnc34)c(Cl)c2s1 [Example 492, ((1R,5S,6r)-3-(3-(7-chloro-2-methylbenzo[d]thiazol-6-yl)-1H-pyrazolo[3,4-b]pyrazin-6-yl)-6-(pyridin-2-yl)-3-azabicyclo[3.1.0]hexan-6-yl)methanamine] | < 0.5 µM | < 1 µM | – |
| Cc1nn(C)c(C)c1-c1n[nH]c2nc(N3CC[C@@H]4[C@H](C3)[C@@]4(CN)c3ccccc3F)cnc12 [Example 371, ((1S,6R,7R)-7-(2-fluorophenyl)-3-(3-(1,3,5-trimethyl-1H-pyrazol-4-yl)-1H-pyrazolo[3,4-b]pyrazin-6-yl)-3-azabicyclo[4.1.0]heptan-7-yl)methanamine] | > 3 µM | > 5 µM | – |
| COC(C)c1ccc(-c2n[nH]c3nc(N4CC[C@@H]5[C@H](C4)[C@@]5(CN)c4ccccc4F)cnc23)c2cccnc12 (stereo partly drawn) [Example 165, ((1S,6R,7R)-7-(2-fluorophenyl)-3-(3-(8-(1-methoxyethyl)quinolin-5-yl)-1H-pyrazolo[3,4-b]pyrazin-6-yl)-3-azabicyclo[4.1.0]heptan-7-yl)methanamine] | < 0.5 µM | < 1 µM | – |
| NC[C@]1(c2ccccc2F)[C@@H]2CCN(c3cnc4c(-c5ccc6nccc(N)c6c5)n[nH]c4n3)C[C@@H]21 [Example 258, 6-(6-((1S,6R,7R)-7-(aminomethyl)-7-(2-fluorophenyl)-3-azabicyclo[4.1.0]heptan-3-yl)-1H-pyrazolo[3,4-b]pyrazin-3-yl)quinolin-4-amine] | < 0.5 µM | > 5 µM | – |
| Cn1ccc([C@@]2(CN)[C@@H]3CN(c4cnc5c(-c6ccc7nccnc7c6Cl)n[nH]c5n4)C[C@@H]32)n1 [Example 511, ((1R,5S,6r)-3-(3-(5-chloroquinoxalin-6-yl)-1H-pyrazolo[3,4-b]pyrazin-6-yl)-6-(1-methyl-1H-pyrazol-3-yl)-3-azabicyclo[3.1.0]hexan-6-yl)methanamine] | < 0.5 µM | < 1 µM | – |
| Cn1c(N2CC[C@@H]3[C@H](C2)[C@@]3(CN)c2ccccc2F)nc2[nH]nc(-c3ccc(C(N)=O)c4ncccc34)c2c1=O [Example 343, 5-(6-((1S,6R,7R)-7-(aminomethyl)-7-(2-fluorophenyl)-3-azabicyclo[4.1.0]heptan-3-yl)-5-methyl-4-oxo-4,5-dihydro-1H-pyrazolo[3,4-d]pyrimidin-3-yl)quinoline-8-carboxamide] | < 0.5 µM | > 5 µM | – |
| NC[C@]1(c2ccccc2F)[C@@H]2CCN(c3cnc4nc(N5CCCc6ncccc65)ccc4n3)C[C@@H]21 [Example 406, ((1S,6R,7R)-3-(6-(3,4-dihydro-1,5-naphthyridin-1(2H)-yl)pyrido[2,3-b]pyrazin-2-yl)-7-(2-fluorophenyl)-3-azabicyclo[4.1.0]heptan-7-yl)methanamine] | < 0.5 µM | < 1 µM | – |
| Cc1csc([C@@]2(CN)[C@@H]3CN(c4nc5[nH]nc(-c6ccc7nn(C)cc7c6Cl)c5c(=O)n4C)C[C@@H]32)n1 [Example 472, 6-((1R,5S,6r)-6-(aminomethyl)-6-(4-methylthiazol-2-yl)-3-azabicyclo[3.1.0]hexan-3-yl)-3-(4-chloro-2-methyl-2H-indazol-5-yl)-5-methyl-1,5-dihydro-4H-pyrazolo[3,4-d]pyrimidin-4-one] | < 0.5 µM | < 1 µM | – |
| Cc1csc([C@@]2(CN)[C@@H]3CCN(c4cnc5c(-c6ccc7nc(C)sc7c6Cl)n[nH]c5n4)C[C@@H]32)n1 [Example 444, ((1S,6R,7S)-3-(3-(7-chloro-2-methylbenzo[d]thiazol-6-yl)-1H-pyrazolo[3,4-b]pyrazin-6-yl)-7-(4-methylthiazol-2-yl)-3-azabicyclo[4.1.0]heptan-7-yl)methanamine] | < 0.5 µM | < 1 µM | – |
| Cn1cc2c(C3CC3)c(-c3n[nH]c4nc(N5CC[C@@H]6[C@H](C5)[C@@]6(CN)c5ccccc5F)cnc34)ccc2n1 [Example 194, ((1S,6R,7R)-3-(3-(4-cyclopropyl-2-methyl-2H-indazol-5-yl)-1H-pyrazolo[3,4-b]pyrazin-6-yl)-7-(2-fluorophenyl)-3-azabicyclo[4.1.0]heptan-7-yl)methanamine] | < 0.5 µM | < 1 µM | – |
